Data: patent US7217726B2, “Antibacterial agents” (Orchid Chemicals & Pharmaceuticals Limited, priority 2002, dated 2007)
In brackets after ≈: the same amount, converted by molar mass.

Tests used:
S. aureus MRO 00013 = assay: Agar Dilution Method MIC, S. aureus MRO 00013; type: cell-based; settings: Staphylococcus aureus, MRO00013, Mueller Hinton Agar, 35° Celsius, 20 hours, read-out: Minimum Inhibitory Concentration (MIC in μg/ml)
Description: (§1) Briefly, the compounds of invention were weighed, dissolved in Dimethyl Sulfoxide, serially diluted in the same solvent and then incorporated into molten Mueller Hinton Agar in a petridish before solidification, with each petridish containing a different concentration of a compound.
(§2) The Bacterial Inoculum was prepared by touching the tops of 3 to 5 well isolated bacterial colonies with the same morphological appearance from an 18 hour old culture with an inoculating loop, transfering the growth to a tube containing 5 ml of normal saline and adjusting the turbidity of the saline suspension to 0.5 Macfarland Turbidity Standard equivalent to a bacterial population of 1.5×10^8 colony forming units (CFU) per millilitre of suspension.
(§3) The bacterial inoculum prepared in the above manner was inoculated onto petri dishes containing Mueller Hinton Agar which had earlier been incorporated with different dilutions of the compounds of invention by a Multipoint Inoculator with each inoculum spot containing approximately 1×10^4 colony forming units (CFU) of bacteria.
(§4) The inoculated petridishes were incubated at 35° Celsius in an ambient atmosphere for 20 hours. Petridishes containing different concentrations of Vancomycin and Oxacillin and inoculated with Staphylococcus aureus, Coagulase Negative Staphylococci and Enterococci were incubated for 24 hours.

S. aureus MRO 00055 = assay: Agar Dilution Method MIC, S. aureus MRO 00055; type: cell-based; settings: Staphylococcus aureus, MRO00055, Mueller Hinton Agar, 35° Celsius, 20 hours, read-out: Minimum Inhibitory Concentration (MIC in μg/ml)
Description: as §1, §2, §3, §4

S. epidermidis MRO 02046 = assay: Agar Dilution Method MIC, S. epidermidis MRO 02046; type: cell-based; settings: Staphylococcus epidermidis, MRO02046, Mueller Hinton Agar, 35° Celsius, 20 hours, read-out: Minimum Inhibitory Concentration (MIC in μg/ml)
Description: as §1, §2, §3, §4

S. aureus MRO 00001 = assay: Agar Dilution Method MIC, S. aureus MRO 00001; type: cell-based; settings: Staphylococcus aureus, MRO00001, Mueller Hinton Agar, 35° Celsius, 20 hours, read-out: Minimum Inhibitory Concentration (MIC in μg/ml)
Description: as §1, §2, §3, §4

S. aureus MRO 00003 = assay: Agar Dilution Method MIC, S. aureus MRO 00003; type: cell-based; settings: Staphylococcus aureus, MRO00003, Mueller Hinton Agar, 35° Celsius, 20 hours, read-out: Minimum Inhibitory Concentration (MIC in μg/ml)
Description: as §1, §2, §3, §4

S. aureus MRO 00030 = assay: Agar Dilution Method MIC, S. aureus MRO 00030; type: cell-based; settings: Staphylococcus aureus, MRO00030, Mueller Hinton Agar, 35° Celsius, 20 hours, read-out: Minimum Inhibitory Concentration (MIC in μg/ml)
Description: as §1, §2, §3, §4

S. aureus MRO 00048 = assay: Agar Dilution Method MIC, S. aureus MRO 00048; type: cell-based; settings: Staphylococcus aureus, MRO00048, Mueller Hinton Agar, 35° Celsius, 20 hours, read-out: Minimum Inhibitory Concentration (MIC in μg/ml)
Description: as §1, §2, §3, §4

S. aureus MRO 00059 = assay: Agar Dilution Method MIC, S. aureus MRO 00059; type: cell-based; settings: Staphylococcus aureus, MRO00059, Mueller Hinton Agar, 35° Celsius, 20 hours, read-out: Minimum Inhibitory Concentration (MIC in μg/ml)
Description: as §1, §2, §3, §4

E. fecalis MRO 04045 = assay: Agar Dilution Method MIC, E. fecalis MRO 04045; type: cell-based; settings: Enterococcus faecalis, MRO04045, Mueller Hinton Agar, 35° Celsius, 20 hours, read-out: Minimum Inhibitory Concentration (MIC in μg/ml)
Description: as §1, §2, §3, §4

E. faecalis ATCC 51299 = assay: Agar Dilution Method MIC, E. faecalis ATCC 51299; type: cell-based; settings: Enterococcus faecalis, ATCC51299, Mueller Hinton Agar, 35° Celsius, 20 hours, read-out: Minimum Inhibitory Concentration (MIC in μg/ml)
Description: as §1, §2, §3, §4

E. faecalis ATCC 29212 = assay: Agar Dilution Method MIC, E. faecalis ATCC 29212; type: cell-based; settings: Enterococcus faecalis, ATCC29212, Mueller Hinton Agar, 35° Celsius, 20 hours, read-out: Minimum Inhibitory Concentration (MIC in μg/ml)
Description: as §1, §2, §3, §4

S. aureus ATCC 29213 = assay: Agar Dilution Method MIC, S. aureus ATCC 29213; type: cell-based; settings: Staphylococcus aureus, ATCC29213, Mueller Hinton Agar, 35° Celsius, 20 hours, read-out: Minimum Inhibitory Concentration (MIC in μg/ml)
Description: as §1, §2, §3, §4

S. aureus ATCC 43300 = assay: Agar Dilution Method MIC, S. aureus ATCC 43300; type: cell-based; settings: Staphylococcus aureus, ATCC43300, Mueller Hinton Agar, 35° Celsius, 20 hours, read-out: Minimum Inhibitory Concentration (MIC in μg/ml)
Description: as §1, §2, §3, §4

[1] = system: M. catarrhalis ATCC 43627; assay: Agar Dilution Method MIC, M. catarrhalis ATCC 43627; type: cell-based, Morexella catarrhalis; settings: Moraxella catarrhalis, ATCC43627, Mueller Hinton Agar, 35° Celsius, 20 hours, read-out: Minimum Inhibitory Concentration (MIC in μg/ml)
Description: as §1, §2, §3, §4

[2] = system: M. catarrhalis ATCC 43617; assay: Agar Dilution Method MIC, M. catarrhalis ATCC 43617; type: cell-based, Morexella catarrhalis; settings: Moraxella catarrhalis, ATCC43617, Mueller Hinton Agar, 35° Celsius, 20 hours, read-out: Minimum Inhibitory Concentration (MIC in μg/ml)
Description: as §1, §2, §3, §4

[3] = system: M. catarrhalis ATCC 43628; assay: Agar Dilution Method MIC, M. catarrhalis ATCC 43628; type: cell-based, Morexella catarrhalis; settings: Moraxella catarrhalis, ATCC43628, Mueller Hinton Agar, 35° Celsius, 20 hours, read-out: Minimum Inhibitory Concentration (MIC in μg/ml)
Description: as §1, §2, §3, §4

melting point [°C] | MIC (S. aureus MRO 00013) [µg/mL] | MIC (S. aureus MRO 00055) [µg/mL] | MIC (S. epidermidis MRO 02046) [µg/mL] | MIC (S. aureus MRO 00001) [µg/mL] | MIC (S. aureus MRO 00003) [µg/mL] | MIC (S. aureus MRO 00030) [µg/mL] | MIC (S. aureus MRO 00048) [µg/mL] | MIC (S. aureus MRO 00059) [µg/mL] | MIC (E. fecalis MRO 04045) [µg/mL] | MIC (E. faecalis ATCC 51299) [µg/mL] | MIC (E. faecalis ATCC 29212) [µg/mL] | MIC (S. aureus ATCC 29213) [µg/mL] | MIC (S. aureus ATCC 43300) [µg/mL] | MIC [1] [µg/mL] | MIC [2] [µg/mL] | MIC [3] [µg/mL] | Compound
202 to 204 |  |  |  |  |  |  |  |  |  |  |  |  |  |  |  |  | CC(=O)NC[C@H]1CN(c2ccc(N3CCN(C(=S)CN)CC3)c(F)c2)C(=O)O1.Cl
 | 0.5 (≈ 0.985 µM) | 0.5 (≈ 0.985 µM) | 0.25 (≈ 0.493 µM) | 0.5 (≈ 0.985 µM) | 0.5 (≈ 0.985 µM) | 0.5 (≈ 0.985 µM) | 0.25 (≈ 0.493 µM) | 0.5 (≈ 0.985 µM) | 1 (≈ 1.97 µM) | 0.5 (≈ 0.985 µM) | 0.5 (≈ 0.985 µM) | 0.5 (≈ 0.985 µM) | 0.25 (≈ 0.493 µM) | 1 (≈ 1.97 µM) | 0.5 (≈ 0.985 µM) | 0.5 (≈ 0.985 µM) | CC(=S)NC[C@H]1CN(c2ccc(N3CCN(C(=S)c4ccc([N+](=O)[O-])o4)CC3)c(F)c2)C(=O)O1 [Example 5, (S)-N-[3-[3-Fluoro-4-[4-(5-nitrofuran-2-ylthiocarbonyl)piperazin-1-yl]phenyl]-2-oxooxazolidin-5-ylmethyl]thioacetamide]
 | 1 (≈ 2.03 µM) | 0.5 (≈ 1.01 µM) | 0.25 (≈ 0.507 µM) | 0.25 (≈ 0.507 µM) | 0.5 (≈ 1.01 µM) | 0.5 (≈ 1.01 µM) | 0.5 (≈ 1.01 µM) | 0.5 (≈ 1.01 µM) | 0.5 (≈ 1.01 µM) | 0.5 (≈ 1.01 µM) | 0.5 (≈ 1.01 µM) | 0.5 (≈ 1.01 µM) | 0.5 (≈ 1.01 µM) | 2 (≈ 4.06 µM) | 2 (≈ 4.06 µM) | 2 (≈ 4.06 µM) | CC(=S)NC[C@H]1CN(c2ccc(N3CCN(C(=S)c4ccc(C)s4)CC3)c(F)c2)C(=O)O1 [Example 7, (S)-N-[3-[3-Fluoro-4-[4-(5-methylthiophen-2-ylthiocarbonyl)piperazin-1-yl]phenyl]-2-oxooxazolidin-5-ylmethyl]thioacetamide]
